In patent publication US6849653B2, “Substituted pyrazolyl benzenesulfamide compounds for the treatment of inflammation” (Pharmacia Corporation, priority 2001, dated 2005):

Target: T1, IKK2 (IKKβ), rhIKK2 homodimer (Homo sapiens, UniProt O14920)
T1 construct: made in house; host or cells: insect cells (baculovirus; SF9)
T1 sequence (O14920 1-756): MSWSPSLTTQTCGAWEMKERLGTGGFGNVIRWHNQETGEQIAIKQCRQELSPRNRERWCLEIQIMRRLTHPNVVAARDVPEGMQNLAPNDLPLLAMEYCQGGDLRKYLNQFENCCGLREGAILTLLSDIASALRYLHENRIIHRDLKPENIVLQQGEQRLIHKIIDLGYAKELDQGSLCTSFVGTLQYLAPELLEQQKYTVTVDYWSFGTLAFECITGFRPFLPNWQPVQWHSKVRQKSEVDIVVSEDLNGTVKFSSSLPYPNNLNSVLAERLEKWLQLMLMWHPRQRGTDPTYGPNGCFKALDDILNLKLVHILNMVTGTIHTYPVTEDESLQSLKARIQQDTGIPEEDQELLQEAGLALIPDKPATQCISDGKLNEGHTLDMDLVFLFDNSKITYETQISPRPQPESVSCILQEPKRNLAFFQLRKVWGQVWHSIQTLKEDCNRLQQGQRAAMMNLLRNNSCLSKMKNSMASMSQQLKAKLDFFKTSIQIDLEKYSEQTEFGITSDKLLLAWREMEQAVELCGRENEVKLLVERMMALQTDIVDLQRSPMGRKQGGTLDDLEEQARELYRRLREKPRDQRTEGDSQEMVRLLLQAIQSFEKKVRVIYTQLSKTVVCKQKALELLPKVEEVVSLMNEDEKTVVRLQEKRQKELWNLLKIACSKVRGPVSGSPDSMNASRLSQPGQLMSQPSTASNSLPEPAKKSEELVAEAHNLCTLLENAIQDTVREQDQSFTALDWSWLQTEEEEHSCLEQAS
Experiment: IKKβ (IKK2) Resin Enzyme Assay
Type: biochemical
Conditions: Table 2; values given as bins; read-out: IKK2 Resin IC 50
Source text: (§1) cDNAs of human IKK1 and IKK2 were amplified by reverse transcriptase-polymerase chain reaction from human placental RNA (Clonetech). hIKK1 was subcloned into pFastBac HTa (Life Technologies) and expressed as N-terminal His6-tagged fusion protein. The hIKK2 cDNA was amplified using a reverse oligonucleotide primer which incorporated the peptide sequence for a FLAG-epitope tag at the C-terminus of the IKK2 coding region (DYKDDDDKD). The hIKK2:FLAG cDNA was subcloned into the baculovirus vector pFastBac. The rhIKK2 ([…]) mutant was constructed in the same vector used for wild type rhIKK2 using a QuikChange™ mutagenesis kit (Stratagene). Viral stocks of each construct were used to infect insect cells grown in 40L suspension culture. […] Cell lysates were stored at −80° C. until purification of the recombinant proteins was undertaken as described below.
Isolation of rhIKK2 Homodimer
A 10 liter culture of baculovirus-expressing IKK2 tagged with FLAG peptide was centrifuged and the cell pellet (MOI=0.1 and I=72 hrs) was re-suspended in buffer A. These cells were microfluidized, and centrifuged at 100,000×g for 45 min. Supernatant was passed over a G-25 column equilibrated with Buffer A. Protein peak was collected and incubated with anti-FLAG affinity resin on a rotator overnight in buffer B. The resin was washed in batch with 10-15 bed volumes of buffer C. Washed resin was poured into a column and rhIKK2 homodimer was eluted using 5 bed volumes of buffer B containing FLAG peptide. 5 mM DTT, 0.1% NP-40 and BSA (concentrated to 0.1% in final amount) was added to the eluted enzyme before concentrating in using an Amicon membrane with a molecular weight cut-off of 30 kDa. Enzyme was aliquoted and stored at −80° C.
IKKβ kinase activity was measured using a biotinylated IκBα peptide (Gly-Leu-Lys-Lys-Glu-Arg-Leu-Leu-Asp-Asp-Arg-His-Asp-Ser32-Gly-Leu-Asp-Ser36-Met-Lys-Asp-Glu-Glu) (American Peptide Co.). […] contained 5 μM biotinylated IκBα peptide, 0.1 μCi/reaction [γ-^33P] ATP (Amersham) (about 1×10^5 cpm), 1 μM ATP (Sigma), 1 mM DTT (Sigma), 2 mM MgCl2 (Sigma), 2 mM MnCl2 (Sigma), 10 mM NaF (Sigma), 25 mM Hepes (Sigma) buffer, pH 7.6 and 20 μl enzyme solution and […] inhibitor in a final volume of 50 μl. After incubation at 25° C. for 30 min, 150 μl resin (Dowex anion-exchange resin AG1X8 200-400 mesh) in 900 mM formate, pH 3.0 was added to each well to stop the reaction. Resin was allowed to settle for one hour and 50 ul of supernatant was removed to a Micolite-2 flat bottom plate (Dynex). 150 μl of scintillation fluid (Microscint 40) (Packard) was added to each well. Incorporation of [γ-^33P] ATP was measured using a Top-Count NXT (Packard).

SMILES	IC50
CS(=O)(=O)c1ccc(-n2nc(C(N)=O)c3ccc4ccc(NC(=O)c5cccnc5Cl)cc4c32)cc1 [Example 41, 8-{[(2-chloropyridin-3-yl)carbonyl]amino}-1-[4-(methylsulfonyl)phenyl]-1H-benzo[g]indazole-3-carboxamide]	≤ 1 µM
CS(=O)(=O)c1ccc(-n2nc(C(N)=O)c3ccc4ccc(NC(=O)c5cccc(Cl)c5Cl)cc4c32)cc1 [Example 40, 8-[(2,3-dichlorobenzoyl)amino]-1-[4-(methylsulfonyl)phenyl]-1H-benzo[g]indazole-3-carboxamide]	≤ 1 µM

Same assay, conditions: Table 3; read-out: IKK2 Resin IC 50

SMILES	IC50
NC(=O)c1nn(-c2ccc(F)cc2F)c2c1ccc1ccc(NC(=O)c3cccnc3Cl)cc12 [Example 52, 8-{[(2-chloropyridin-3-yl)carbonyl]amino}-1-(2,4-difluorophenyl)-1H-benzo[g]indazole-3-carboxamide]	≤ 1 µM
NC(=O)c1nn(-c2ccc(F)cc2)c2c1ccc1ccc(N)cc12 [Example 46, 8-amino-1-(4-fluorophenyl)-1H-benzo[g]indazole-3-carboxamide]	10 to 100 µM
NC(=O)c1nn(-c2ccc(F)cc2)c2c1cc(Br)c1ccc(NC(=O)c3ccncc3Cl)cc12 [Example 44]	≤ 1 µM

Same assay, conditions: Table 4; values given as bins; read-out: IKK2 Resin IC 50

SMILES	IC50
NC(=O)c1nn(-c2ccc3c(c2)OCO3)c2c1ccc1ccc(NC(=O)c3cccnc3Cl)cc12 [Example 55, 1-(1,3-benzodioxol-5-yl)-8-{[(2-chloropyridin-3-yl)carbonyl]amino}-1H-benzo[g]indazole-3-carboxamide]	≤ 1 µM

Target: T2, rhIKK1/IKK2 heterodimer (Homo sapiens, UniProt O14920+O15111)
T2 construct: made in house; host or cells: insect cells (baculovirus coinfection; SF9)
T2 sequence (O14920 1-756): T1 sequence (O14920 1-756)
T2 sequence (O15111 1-745): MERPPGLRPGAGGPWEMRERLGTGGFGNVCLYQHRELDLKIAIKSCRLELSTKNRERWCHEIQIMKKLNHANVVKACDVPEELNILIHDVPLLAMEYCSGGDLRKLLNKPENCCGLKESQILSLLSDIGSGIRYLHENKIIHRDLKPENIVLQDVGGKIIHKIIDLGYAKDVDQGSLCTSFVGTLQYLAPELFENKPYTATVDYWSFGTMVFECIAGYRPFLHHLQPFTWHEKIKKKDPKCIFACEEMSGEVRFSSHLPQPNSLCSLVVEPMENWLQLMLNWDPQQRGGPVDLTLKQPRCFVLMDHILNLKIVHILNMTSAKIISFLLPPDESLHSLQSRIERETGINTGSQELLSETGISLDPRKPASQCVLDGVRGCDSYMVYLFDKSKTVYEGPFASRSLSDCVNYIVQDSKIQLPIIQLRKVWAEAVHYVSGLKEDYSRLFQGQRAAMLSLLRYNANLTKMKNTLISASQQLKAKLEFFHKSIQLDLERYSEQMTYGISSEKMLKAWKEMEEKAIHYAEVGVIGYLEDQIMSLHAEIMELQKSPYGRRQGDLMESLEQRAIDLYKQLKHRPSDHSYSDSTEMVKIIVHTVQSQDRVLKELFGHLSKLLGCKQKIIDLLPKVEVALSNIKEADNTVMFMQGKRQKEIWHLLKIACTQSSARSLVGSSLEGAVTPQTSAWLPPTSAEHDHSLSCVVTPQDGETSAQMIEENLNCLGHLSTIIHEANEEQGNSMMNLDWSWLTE
Experiment: IKK Heterodimer Resin Enzyme Assay
Type: biochemical
Conditions: Table 1; values given as bins; read-out: HetD (IKK heterodimer assay values expressed as IC50)
Source text: as §1, with “([…]).” for “(DYKDDDDKD).”
Isolation of rhIKK1/IKK2 Heterodimer
The heterodimer enzyme was produced by coinfection in a baculovirus system (FLAG IKK2/IKK1 His; MOI=0.1 and I=72 hrs). Infected cells were centrifuged and the cell pellet (10.0 g) was suspended in 50 ml of buffer A. The protein suspension was microfluidized and centrifuged at 100,000×g for 45 min. Imidazole was added to the supernatant to a final concentration of 10 mM. The protein was allowed to bind 25 ml of Ni-NTA resin by mixing for 2 hrs. The protein-resin slurry was poured into a 25 ml column and washed with 250 ml of buffer A containing 10 mM imidazole followed by 125 ml of buffer A containing 50 mM imidazole. Buffer A, containing 300 mM imidazole, was then used to elute the protein. A 75 ml pool was collected and NP-40 was added to a final concentration of 0.1%. […] The protein-resin slurry was then centrifuged for 5 min at 2,000 rpm. The supernatant was collected and the resin re-suspended in 100 ml of buffer C containing 0.1% NP-40. The resin was washed with 375 ml of buffer C containing 0.1% NP-40. The protein-resin was poured into a 25 ml column and the enzyme eluted using buffer B containing FLAG peptide. Enzyme fractions (100 ml) were collected and concentrated to 20 ml using an Amicon membrane with molecular weight cut-off of 30 kDa. Bovine serum albumin was added to the concentrated enzyme to final concentration of 0.1%. The enzyme was then aliquoted and stored at −80° C.
IKK Heterodimer Resin Enzyme Assay
Resin was allowed to settle for one hour and 50 ul of supernatant was removed to a Micolite-2 flat bottom plate (Dynex). 150 μl of scintillation fluid (Microscint 40) (Packard) was added to each well. Incorporation of [γ-^33P] ATP was measured using a Top-Count NXT (Packard).

SMILES	IC50
NC(=O)c1nn(-c2ccc(S(N)(=O)=O)cc2)c2c1ccc1ccc(NS(=O)(=O)c3cccc(Cl)c3)cc12 [Example 16, 1-[4-(aminosulfonyl)phenyl]-8-{[(3-chlorophenyl)sulfonyl]amino}-1H-benzo[g]indazole-3-carboxamide]	1 to 10 µM
C=CCN(CC=C)S(=O)(=O)c1ccc(-n2nc(C(N)=O)c3ccc4ccc(N)cc4c32)cc1 [Example 7, 8-amino-1-{4-[(diallylamino)sulfonyl]phenyl}-1H-benzo[g]indazole-3-carboxamide]	≤ 1 µM
CC(=O)Nc1ccc2ccc3c(C(N)=O)nn(-c4ccc(S(N)(=O)=O)cc4)c3c2c1 [Example 20, 8-(acetylamino)-1-[4-(aminosulfonyl)phenyl]-1H-benzo[g]indazole-3-carboxamide]	≤ 1 µM
N#Cc1cccc(C(=O)Nc2ccc3ccc4c(C(N)=O)nn(-c5ccc(S(N)(=O)=O)cc5)c4c3c2)c1 [Example 17, 1-[4-(aminosulfonyl)phenyl]-8-[(3-cyanobenzoyl)amino]-1H-benzo[g]indazole-3-carboxamide]	≤ 1 µM
COc1cccc(C(=O)Nc2ccc3ccc4c(C(N)=O)nn(-c5ccc(S(N)(=O)=O)cc5)c4c3c2)c1 [Example 8, 1-[4-(aminosulfonyl)phenyl]-8-[(3-methoxybenzoyl)amino]-1H-benzo[g]indazole-3-carboxamide]	≤ 1 µM

Second part, the compound after the results:

IC50	SMILES
≤ 1 µM	NC(=O)c1nn(-c2ccc(S(N)(=O)=O)cc2)c2c1ccc1ccc(NC(=O)c3cccc(Br)c3)cc12 [Example 12, 1-[4-(aminosulfonyl)phenyl]-8-[(3-bromobenzoyl)amino]-1H-benzo[g]indazole-3-carboxamide]
≤ 1 µM	NC(=O)c1nn(-c2ccc(S(N)(=O)=O)cc2)c2c1ccc1ccc(NC(=O)c3ccncc3)cc12 [Example 34, 1-[4-(aminosulfonyl)phenyl]-8-(isonicotinoylamino)-1H-benzo[g]indazole-3-carboxamide]
≤ 1 µM	NC(=O)c1nn(-c2ccc(S(N)(=O)=O)cc2)c2c1ccc1ccc(NC(=O)c3ccccc3Cl)cc12 [Example 14, 1-[4-(aminosulfonyl)phenyl]-8-[(2-chlorobenzoyl)amino]-1H-benzo[g]indazole-3-carboxamide]
